Measured values as given in patent US7795226B2, “Control of radiation injury” (Biotempt B.V., priority 2006, dated 2010).
Where “and” joins values, the source holds several entries; their conditions need not be identical. Equal entries are not always repeated.

Columns and labels:
Assay type in all cases: in vivo
[1] = tested on: high dose LPS (E. coli 026:B6)-induced septic shock in BALB/c mice; test: high dose LPS-induced septic shock, peptide administered twice; settings: peptide twice (t = 2 and 24 hours) 5 mg/kg
How it was run: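 Female BALB/c mice (8–12 weeks) given high-dose LPS (E. coli 026:B6) i.p., predetermined to cause 80–100% mortality in 24–72 h. Peptides in PBS at 5 mg/kg i.p. at 2 and 24 h after LPS; sickness scored 0–5 or dead.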

[2] = tested on: LPS (E. coli 026:B6)-induced septic shock in BALB/c mice; test: LPS-induced septic shock, single dose of peptide
Experimental: Mice used in sepsis or septic shock experiments: Female BALB/c mice of eight to twelve weeks of age were used for all experiments. The animals were bred in our facility under specific pathogen-free conditions according to the protocols described in the […] of European Laboratory Animal Science Associations (FELASA) Working group on Animal Health (Laboratory Animals 28:1-24, 1994).
Injection protocols: For the endotoxin model, BALB/c mice were injected i.p. with 150-300 μg LPS (E. coli 026:B6; Difco Lab., Detroit, Mich., USA). Control groups were treated with PBS i.p. only. To test the effect of peptides, they were dissolved in PBS and injected i.p. at predetermined points in time after LPS treatment.
Mice were scored for sickness severity using the following measurement scheme: • 0 No abnormalities. • 1 Percolated fur, but no detectable behavior differences compared to normal mice. • 2 Percolated fur, huddle reflex, responds to stimuli (such as tap on cage), just as active during handling as healthy mouse. • 3 Slower response to tap on cage, passive or docile when handled, but still curious when alone in a new setting. • 4 Lack of curiosity, little or no response to stimuli, quite immobile. • 5 Labored breathing, inability or slow to self-right after being rolled onto back (moribund, sacrificed). • D Dead.
A first set of septic shock experiments were set up to determine which of the peptides LQG, LQGV (SEQ ID NO:117), VLPALP (SEQ ID NO:140), VLPALPQ (SEQ ID NO:143), MTR, MTRV (SEQ ID NO:119), VVC or QVVC (SEQ ID NO:118) were capable of inhibiting lipopolysaccharide (LPS)-induced septic shock in mice by treating mice with a single dose of peptide at two hours after LPS treatment. Peptides were used at 5 mg/kg bodyweight. BALB/c mice were injected i.p. with escalating doses LPS (E. coli 026:B6; Difco Lab., Detroit, Mich. USA), predetermined to be leading to 80 to 100% mortality in 24 to 72 hours.
To test the effect of peptide early in the development of shock, mice were treated at two hours or at 24 hours after treatment with varying doses of LPS by i.p. injection with test peptide at 5 mg/kg bodyweight.

[3] = tested on: renal ischemia reperfusion in mice; test: mouse renal ischemia reperfusion test; parameters: BUN after 25 minutes renal ischemia, mean / Urea levels in dose-response experiment: unit not given here; settings: for mortality at 72 hours post-reperfusion: 5 mg/kg i.v. before and after 25 minutes clamping, dead/total
Experimental: Six oligopeptides (i.e., A: LAGV (SEQ ID NO:121); B: AQGV (SEQ ID NO:120); C: LAG; D: AQG; E: MTR; and F: MTRV (SEO ID NO:119)) were tested and compared with PBS (control) in a double blind animal study for each peptide's relative ability to aid recovery in a mouse renal ischemia reperfusion test. In this test, the mice were anesthetized, and one kidney from each mouse was removed. The other kidney was tied off for 25 minutes, and the serum urea levels were allowed to increase. Both before and after tying off, each of the separate peptides was administered to thirty (30) different mice (5 mg oligopeptide / kg body mass intravenously), after which, the mortality of the mice was determined for each oligopeptide as well as was the BUN concentration at two hours, 24 hours and 72 hours. The results are shown in Table 3 below (excluding the results of peptide A (LAGV (SEQ ID NO:121)) obtained in Example 3).
Under inhalation anesthesia, the left kidney with its artery and vein was isolated and occluded for 25 minutes using a microvascular clamp. During surgery, animals were placed on a heating pad to maintain body temperature at 37° C. Five minutes before placing the clamp, and five minutes before releasing the clamp, 5 mg/kg of peptide dissolved in 0.1 mL of sterile saline, was administered intravenously. After reperfusion of the left kidney, the right kidney was removed. Kidney function was assessed by measuring blood urea nitrogen before clamping, and at 2, 24, and 72 hours after reperfusion.
Peptides were tested at 0.3, 1, 3, 10 and 30 mg/kg dosages given as described in Example 3. P values (calculated by Mann Whitney U-test (SPSS for Windows)) of serum urea levels of PBS compared to peptide D groups at 72 hours post-clamping were at 0.3 mg/kg 0.001, at 1 mg/kg 0.009, at 3 mg/kg 0.02, at 10 mg/kg 0.000, and at 30 mg/kg 0.23; for peptide B (SEQ ID NO:120) groups, these P-values were 0.88, 0.054, 0.000, 0.001 and 0.003.

[4] = LPS dose 7**, single dose 5 mg/kg
[5] = LPS dose 7*, single dose 5 mg/kg
[6] = LPS dose 8, single dose 5 mg/kg
[7] = LPS dose 10, single dose 5 mg/kg
[8] = LPS dose 10, single dose 5 mg/kg, 5 mg/kg
[9] = 2 hours after reperfusion, 5 mg/kg i.v.
[10] = 24 hours after reperfusion, 5 mg/kg i.v.
[11] = 72 hours after reperfusion, 5 mg/kg i.v.
[12] = t = 0 hr (before clamping), 5 mg/kg i.v.

| Substance | mice with sickness score 4, effect at t = 24 hours ([1]; LPS dose 11) | mice with sickness score 1, effect at t = 48 hours [2, 4] | mice scored D (dead), effect at t = 48 hours [2, 7] | mice with sickness score 3, effect at t = 24 hours [2, 7] | mice with sickness score 4, effect at t = 24 hours [2, 7] | BUN after 25 minutes renal ischemia, mean [3, 9] | BUN after 25 minutes renal ischemia, mean [3, 10] | BUN after 25 minutes renal ischemia, mean [3, 11] | BUN after 25 minutes renal ischemia, mean [3, 12] | mice with sickness score 1, effect at t = 48 hours ([1]; LPS dose 10.5) | mice with sickness score 2, effect at t = 24 hours ([1]; LPS dose 10.5) | mice with sickness score 1, effect at t = 48 hours ([1]; LPS dose 11) | mice scored D (dead), effect at t = 48 hours [2, 4] | mice with sickness score 3, effect at t = 24 hours [2, 4] | mice with sickness score 4, effect at t = 24 hours [2, 4] | mice with sickness score 5, effect at t = 24 hours [2, 4] | mice with sickness score 3, effect at t = 24 hours [2, 5] | mice with sickness score 4, effect at t = 24 hours [2, 5] | mice with sickness score 5, effect at t = 48 hours [2, 5] | mice with sickness score 1, effect at t = 48 hours [2, 7] | also measured |
| --- | --- | --- | --- | --- | --- | --- | --- | --- | --- | --- | --- | --- | --- | --- | --- | --- | --- | --- | --- | --- | --- |
| LQGV | 2 | 6 | 1 | 1 | 1 | 17.53 | 56.08 | 73.18 | 7.518 | – | – | – | – | – | – | – | – | – | – | – | mice scored D (dead), effect at t = 48 hours ([1]; LPS dose 10.5): 5; mice with sickness score 5, effect at t = 24 hours ([1]; LPS dose 10.5): 5; mice scored D (dead), effect at t = 48 hours ([1]; LPS dose 11): 4; mice with sickness score 4, effect at t = 48 hours ([1]; LPS dose 11): 2; mice with sickness score 5, effect at t = 24 hours ([1]; LPS dose 11): 4; protective effect against LPS-induced sepsis (in words) ([2]; 5 mg/kg i.p.): marked protective effect; mice with sickness score 1, effect at t = 24 hours [2, 4]: 6; mice with sickness score 1, effect at t = 24 hours [2, 5]: 2; mice with sickness score 1, effect at t = 48 hours [2, 5]: 6; mice with sickness score 2, effect at t = 24 hours [2, 5]: 4; mice with sickness score 0, effect at t = 48 hours [2, 6]: 4; mice with sickness score 1, effect at t = 24 hours [2, 6]: 3; mice with sickness score 2, effect at t = 48 hours [2, 6]: 1; mice with sickness score 3, effect at t = 24 hours [2, 6]: 1; mice with sickness score 2, effect at t = 24 hours ([2]; LPS dose 8, single dose 5 mg/kg, 5 mg/kg): 5 and 3; mice with sickness score 1, effect at t = 24 hours [2, 7]: 2; mice with sickness score 2, effect at t = 48 hours [2, 7]: 1; mice with sickness score 1, effect at t = 48 hours [2, 8]: 6 and 4 |
| MTR | – | 3 | 3 | 2 | 3 | 17.13 | 66.23 | 104.0167 | 8.404 | 5 | 1 | 6 | 3 | 3 | 1 | 1 | 3 | 3 | 3 | 2 | mice with sickness score 1, effect at t = 24 hours ([1]; LPS dose 10.5): 4; mice with sickness score 1, effect at t = 24 hours ([1]; LPS dose 11): 6; mice with sickness score 2, effect at t = 24 hours [2, 4]: 1; mice scored D (dead), effect at t = 48 hours [2, 5]: 1; mice with sickness score 4, effect at t = 48 hours [2, 5]: 2; mice scored D (dead), effect at t = 24 hours [2, 7]: 1; mice with sickness score 5, effect at t = 48 hours [2, 7]: 1; BUN concentration versus the PBS control group (in words) ([3]; 5 mg/kg i.v.): no reducing effect on BUN concentration; mortality versus the PBS control group (in words) ([3]; 5 mg/kg i.v.): significant reduction of mortality; mortality at 72 hours post-reperfusion [3]: 4/10; BUN concentration versus PBS (in words) ([3]; at 72 hours post-reperfusion, 5 mg/kg i.v.): significantly raise BUN levels |
| MTRV | 2 | 3 | – | – | – | 15.09 | 34.57 | 39.8375 | 7.463 | 2 | 1 | 6 | 2 | 2 | 3 | 1 | 3 | 3 | 2 | 2 | mice with sickness score 2, effect at t = 48 hours ([1]; LPS dose 10.5): 3; mice with sickness score 3, effect at t = 24 hours ([1]; LPS dose 10.5): 1; mice with sickness score 4, effect at t = 24 hours ([1]; LPS dose 10.5): 3; mice with sickness score 2, effect at t = 24 hours ([1]; LPS dose 11): 4; mice with sickness score 3, effect at t = 48 hours [2, 4]: 1; mice with sickness score 2, effect at t = 48 hours [2, 5]: 4; mice with sickness score 3, effect at t = 48 hours [2, 7]: 1; mice with sickness score 5, effect at t = 48 hours [2, 7]: 1; mice with sickness score 2, effect at t = 24 hours [2, 8]: 2 and 1; mice with sickness score 3, effect at t = 24 hours [2, 8]: 1 and 2; mice with sickness score 4, effect at t = 24 hours [2, 8]: 2 and 1; mice with sickness score 5, effect at t = 24 hours [2, 8]: 1 and 2; BUN concentration versus the PBS control group (in words) ([3]; 5 mg/kg i.v.): reduced BUN concentration; mortality versus the PBS control group (in words) ([3]; 5 mg/kg i.v.): significant reduction in mortality; mortality at 72 hours post-reperfusion [3]: 2/10 |
